Results on two compounds are retold here after paper PMC3030585, “Functional Magnetic Resonance Imaging Reveals Different Neural Substrates for the Effects of Orexin-1 and Orexin-2 Receptor Antagonists” (PLoS ONE, 2011).

In one assay the target is T1, orexin-2 receptor (OX2R) (Rattus norvegicus, UniProt P56719).
T1 construct: gene Hcrtr2
T1 sequence (P56719 1-460): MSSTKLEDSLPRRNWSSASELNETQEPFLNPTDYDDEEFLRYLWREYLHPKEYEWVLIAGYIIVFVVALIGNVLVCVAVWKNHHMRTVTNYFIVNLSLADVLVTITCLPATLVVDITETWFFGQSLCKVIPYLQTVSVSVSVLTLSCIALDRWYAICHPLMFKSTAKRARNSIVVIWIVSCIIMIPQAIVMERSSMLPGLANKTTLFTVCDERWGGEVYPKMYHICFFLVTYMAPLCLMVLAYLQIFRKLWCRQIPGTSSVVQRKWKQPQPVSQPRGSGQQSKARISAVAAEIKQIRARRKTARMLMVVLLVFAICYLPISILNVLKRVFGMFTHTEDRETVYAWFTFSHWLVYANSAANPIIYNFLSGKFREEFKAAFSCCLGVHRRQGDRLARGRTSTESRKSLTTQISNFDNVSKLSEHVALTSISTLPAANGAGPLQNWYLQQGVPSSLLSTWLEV
In words: antagonism of Orexin-A-induced [3H]inositol phosphates accumulation in RBL cells stably expressing rat OX2R (Schild analysis). The format is cell-based.

Another assay addresses T2, orexin-1 receptor (OX1R) (Rattus norvegicus, UniProt P56718).
T2 construct: gene Hcrtr1
T2 sequence (P56718 1-416): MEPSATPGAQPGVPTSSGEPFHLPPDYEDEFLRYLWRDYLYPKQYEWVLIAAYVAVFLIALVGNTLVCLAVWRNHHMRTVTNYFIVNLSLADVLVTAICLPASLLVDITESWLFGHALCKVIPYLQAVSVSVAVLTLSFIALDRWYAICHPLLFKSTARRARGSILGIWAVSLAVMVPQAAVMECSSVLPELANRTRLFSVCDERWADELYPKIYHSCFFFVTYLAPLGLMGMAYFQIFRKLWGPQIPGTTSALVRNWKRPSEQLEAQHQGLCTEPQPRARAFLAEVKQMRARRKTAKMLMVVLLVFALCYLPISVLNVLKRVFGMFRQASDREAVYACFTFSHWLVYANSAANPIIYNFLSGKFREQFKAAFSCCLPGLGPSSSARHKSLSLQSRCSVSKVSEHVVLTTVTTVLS
Nature of the assay: antagonism of Orexin-A-induced [3H]inositol phosphates accumulation in RBL cells stably expressing rat OX1R. It is filed as cell-based.

The next assay has as its target T3, κ-opioid (KOP) receptor (Homo sapiens, UniProt P41145).
T3 construct: gene OPRK1
In words: CEREP/Bioprint binding assay panel (human isoforms).

T3 sequence (P41145 whole entry): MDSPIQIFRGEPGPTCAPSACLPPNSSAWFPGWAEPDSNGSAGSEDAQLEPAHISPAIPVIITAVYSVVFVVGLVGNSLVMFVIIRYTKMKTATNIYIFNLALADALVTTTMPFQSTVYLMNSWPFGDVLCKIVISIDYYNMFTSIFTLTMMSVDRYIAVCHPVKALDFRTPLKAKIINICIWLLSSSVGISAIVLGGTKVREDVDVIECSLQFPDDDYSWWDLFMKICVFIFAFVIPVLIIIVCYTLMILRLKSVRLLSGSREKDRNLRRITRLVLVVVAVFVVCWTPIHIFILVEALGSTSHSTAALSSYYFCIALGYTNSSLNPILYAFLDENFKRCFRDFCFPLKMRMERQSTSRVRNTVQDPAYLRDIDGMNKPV

For `COc1c(F)cccc1C(=O)N1C[C@@H](C)CC[C@H]1CNc1ccc(Br)cn1` [GSK1059865, 5-bromo-N-[(2S,5S)-1-(3-fluoro-2-methoxybenzoyl)-5-methylpiperidin-2-yl]methyl-pyridin-2-amine], the Kb (commonly the affinity of an antagonist, worked out from how it opposes an agonist) at orexin-2 receptor (OX2R) is 126 nM; on orexin-1 receptor (OX1R) it was 1.58 nM. Moreover, on κ-opioid (KOP) receptor, the affinity corresponds to a Ki of 316 nM.
On to `CC1(C)OC[C@H](NC(=O)Nc2ccc(Br)cc2Br)[C@H](c2ccccc2)O1` [JNJ10397049], for which the Kb was 3.16 nM on orexin-2 receptor (OX2R) and 1260 nM at orexin-1 receptor (OX1R).
